Source: PubChem BioAssay (NCI)
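Step 1: Grow cells in 96-well plates. Step 2: Expose to compound for 48 hours at 5 concentrations. Step 3: Interpolate endpoints linearly; if unreached, use highest concentration. At the GI50, growth is halved. TGI marks complete inhibition of growth.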

Columns and labels:
Test in all cases: growth of human tumour cells (NCI), 48 h
A549 NSCLC = tested on: A549 NSCLC
RPMI-8226 leukemia = tested on: RPMI-8226 leukemia
SK-OV-3 ovarian = tested on: SK-OV-3 ovarian
UACC-257 melanoma = tested on: UACC-257 melanoma
K-562 leukemia = tested on: K-562 leukemia
MALME-3M melanoma = tested on: MALME-3M melanoma
HT29 colon = tested on: HT29 colon
SNB-75 CNS = tested on: SNB-75 CNS
HCT-15 colon = tested on: HCT-15 colon
SNB-19 CNS = tested on: SNB-19 CNS

Structure (SMILES)	GI50 (A549 NSCLC) [µM]	TGI (A549 NSCLC) [µM]	GI50 (RPMI-8226 leukemia) [µM]	TGI (RPMI-8226 leukemia) [µM]	GI50 (SK-OV-3 ovarian) [µM]	TGI (SK-OV-3 ovarian) [µM]	GI50 (UACC-257 melanoma) [µM]	TGI (UACC-257 melanoma) [µM]	GI50 (K-562 leukemia) [µM]	TGI (K-562 leukemia) [µM]	GI50 (MALME-3M melanoma) [µM]	TGI (MALME-3M melanoma) [µM]	GI50 (HT29 colon) [µM]	TGI (HT29 colon) [µM]	GI50 (SNB-75 CNS) [µM]	TGI (SNB-75 CNS) [µM]	GI50 (HCT-15 colon) [µM]	TGI (HCT-15 colon) [µM]	GI50 (SNB-19 CNS) [µM]	TGI (SNB-19 CNS) [µM]
O=c1cc(-c2ccccc2)oc2c(O)c(O)ccc12	7.22	91.5	4.03	50.9	23.8	> 100	18.6	88.5	6.08	> 100	17.4	60.2	35.4	> 100	28.7	> 100	5.45	> 100	16.8	> 100
Cn1cnc(SC2=CC(=O)C=C3S[C@H]4C[C@@]23c2c(c(O)c3c5c2=NCCC=5C=N3)N4)c1CC(N)C(=O)O (some centres not stated)		30.2	16.3	> 100	18	36.6	11.6	23.8		> 87	2.37	5.04	2.18	11.7		34.5	18.4	33.7	19.3	33.5
C=C[C@@H]1CCC/C=C/[C@@H]2C[C@H](O)C[C@H]2[C@H](O)/C=C/C(=O)O1	0.469	> 100	0.448	3.4	0.709	> 100	0.317	> 100	3.18	> 100	0.274	1.06	0.342	1.6	0.397	> 100	2.23	> 100	1.45	> 100
